Test results published in patent US20220354855A1, “TREATMENT FOR GASTROINTESTINAL DISORDERS” (Mayo Foundation for Medical Education and Research, priority 2019, published 2022).

Tests used:
[1] = test system: proximal colon mucosa submucosa preparations from germ free mice; assay: Ussing chamber short circuit current (Isc) in response to CDCA, colon mucosa-submucosa preparations; conditions: CDCA applied basolaterally, n=3, Wilcoxon, FIG. 4E
Source text: FIGS. 4A-4E: An integrated metabolomics approach provides mechanistic insight into the effect of gut microbiota metabolism on host physiology. FIG. 4A is a series of graphs plotting the abundance of propionate (left), butyrate (center), and acetate (right) as determined by ^1H NMR using stool samples from healthy, IBS-C, and IBS-D subjects (averaged data per subject, pairwise Mann-Whitney tests). FIG. 4B is a pair of graphs plotting the abundance of tryptophan (left) and tryptamine (right) as determined by LC-MS in stool samples from healthy, IBS-C, and IBS-D subjects (averaged data per subject, pairwise Mann-Whitney tests). FIG. 4C is a series of graphs plotting the abundance of cholic acid (CA, left panel), chenodeoxycholic acid (CDCA, center panel), and deoxycholic acid sulfate (DCA-S, right panel) as determined by ^1H NMR with stool samples from healthy, IBS-C, and IBS-D subjects (mixed linear models correcting for subject). FIG. 4D is a series of graphs plotting the abundance of CA, CDCA, and DCA-S as determined by ^1H NMR using stool samples from healthy, IBS-C, and IBS-D subjects (averaged data per subject, pairwise Mann-Whitney tests). […]
Ussing chamber experiments: Colonic mucosal secretory responses were assessed using Ussing chamber setups. […]

[2] = test system: colonic biopsies from healthy, IBS-C, and IBS-D subjects; assay: Ussing chamber short circuit current (ΔIsc) in response to serotonin (5-HT), colonic biopsies; set-up: species or system human; conditions: cumulative concentrations of 5-HT applied basolaterally; biopsies from IBS-C patients versus HC; FIG. 3C
Source text: FIGS. 3A-3F: Integrated top-down bottom-up approach provides mechanistic insight into the effect of gut microbiota metabolism on host physiology. FIG. 3A is a series of graphs plotting the abundance of propionate (left), butyrate (center), and acetate (right) as determined by ^1H NMR. The data are shown as mixed linear models correcting for subject in stool samples from healthy, IBS-C, and IBS-D subjects. FIG. 3B is a graph plotting the abundance of acetate in colonic biopsies. FIG. 3C is a graph plotting maximal ΔIsc (Imax) following application of cumulative concentrations of serotonin (5-HT) basolaterally in colonic biopsies from healthy, IBS-C, and IBS-D subjects. FIG. 3D is a graph plotting baseline Isc observed in colonic biopsies from healthy, IBS-C, and IBS-D subjects (P-values are Tukey HSD adjusted from a linear model). FIG. 3E is a pair of graphs plotting the abundance of tryptophan (left) and tryptamine (right) in stool samples from healthy, IBS-C, and IBS-D subjects. […]
Ussing chamber experiments: Colonic mucosal secretory responses were assessed using Ussing chamber setups. […] Short circuit current (Isc) was continuously recorded using Acquire and Analyze software (Physiologic Instruments). ΔIsc values were calculated using Isc measurements before and after application of compounds to the basolateral side and normalized to the tissue area. […]

C[C@H](CCC(=O)O)[C@H]1CC[C@H]2[C@@H]3[C@H](O)C[C@@H]4C[C@H](O)CC[C@]4(C)[C@H]3CC[C@]12C [CDCA, chenodeoxycholic acid]
Isc in response to CDCA (ΔIsc, Imax) [1]: significant increase in Isc

NCCc1c[nH]c2ccc(O)cc12 [serotonin (5-HT), serotonin]
secretory response (maximal ΔIsc, Imax) to serotonin (5-HT) [2]: significantly lower than HC
